Test system: epithelial cell line KB (DSMZ ACC 136)
Experiment: MTT assay of proliferation under varied riboflavin content and light exposure
Assay type: cell-based, human
Text: To address this question, three media, a) the RPMI 1640 without riboflavin and phenol red that is used in the method according to the invention and was manufactured according to our specifications by Biochrom, as well as two different RPMI 1640 charges purchased from Invitrogen which were each containing 532 nmol/L riboflavin, b) a phenol red-free (Gibco 11835), and c) a conventional RPMI 1640 (Gibco 21875) with 13.284 µmol/L phenol red. All media were supplemented with 2 mmol/L L-alanyl-1-glutamine as stabilized glutamine source (Biochrom K0302 Lot 0755 S) and the same amount of 10% (v/v) of heat-inactivated fetal calf serum (FCS) that was purchased from Invitrogen (Lot 41Q7554K) with a yield of 198 nmol/L riboflavin. […] These medium concentrations define the riboflavin concentrations in controls (see below).
In addition to the influences exerted by the different types of media alone, the riboflavin-dependent impact on the outcome of the docetaxel treatment was investigated. For this purpose 100 µl/well of docetaxel dilutions containing threefold the concentration indicated were added into the wells of microwell plates. The following seven docetaxel concentrations were tested: 19.38, 38.75, 77.5, 155, 310, 620, and 1,240 pmol/L.
To examine photoactivation-dependent riboflavin-mediated effects disturbing the outcome of ex-vivo chemoresponse-evaluation by conventional cell culture medium, and in particular in the absence of flavin-protecting experimental conditions, varying amounts of riboflavin were added. A stock solution of 200 µM (-)-riboflavin (CAS 83-68-5, Sigma R9504, FW=376.37 g/mol, purity >99%, cell culture tested) in phosphate buffered saline was diluted to adjust in each case the highest final concentration in culture (this means: after completion of the assay by addition of the other two components to the final assay volume of 300 µL) to exactly 10 µmol/L. Serial log10-dilutions were made from this concentration in each corresponding medium. These gave final concentrations in cell culture of 10.000, 1.018, 0.12, and 0.03 µmol/L in the case of medium a) (the medium according to the method of the invention), and concentrations of 10.000, 1.449, 0.594, and 0.508 µmol/L using media b) and c).
In general, each combination of riboflavin and docetaxel were tested in duplicate, and controls without additional riboflavin in quadruplicate for each experimental setting in the same 96-well plate. The experimental conditions were as follows: For each of the used media, two different plates were prepared simultaneously and either handled completely under flavin-protecting conditions (illumination only by sodium discharge lamps with an emission wavelength of 589 nm [i]), or in the same bench (Thermo MSC 12) with the installed light inside their working chamber switched on. The dilution of docetaxel and those of riboflavin in the particular medium were prepared for all four plates of each medium type prior to the other working steps under flavin-protecting conditions. Thus the administrations of these dilutions took about 20 min either under flavin-protecting conditions or illuminated conditions. After completed preparation of the plates that thereafter contained 200 µL of both diluted compounds, the plates were incubated 2 h in the incubator to allow for adjustment of the appropriate pH.
In between the stock culture of KB was harvested by trypsination of a 3-days stock culture (exponential growth phase). Stock cultures of KB cells always were grown without any antibiotic or antimycotic in phenol red- and riboflavin-free RPMI 1640 supplemented with 10% (v/v) FCS and were adapted to this medium for more than five passages. They were always handled at room temperature or warmer and were never exposed to light other than the light of a sodium discharge lamp with an emission wavelength of 589 nm for at least five passages. […]

Cc1cc2nc3c(=O)[nH]c(=O)nc-3n(C[C@H](O)[C@H](O)[C@H](O)CO)c2cc1C [riboflavin, (-)-riboflavin]
toxicity of riboflavin to KB cells (10 µmol/L riboflavin; plate 03, medium a), bench lighting below 30 min): complete die off of the KB cells | riboflavin concentrations leading to complete dying of all KB cells (exposed to daylight 30 min (plates 02, 04, 06, 08, 10, and 12)): above 594 nmol/L

Source: patent EP2271935B1, “METHOD AND KIT FOR THE EX VIVO EVALUATION OF THE RESPONSE OF A TUMOR TO CONDITIONS TO BE TESTED” (Universität Leipzig, priority 2008, dated 2009)
